One block for each compound: values may come before it.
What was measured:
Mus musculus [1] = species: Mus musculus; assay: Antidepressant activity in mouse assessed as […] by tail suspension test; format: functional
Mus musculus [2] = species: Mus musculus; assay: Antidepressant activity in mouse assessed as […] by forced swimming test; format: functional
Mus musculus [3] = species: Mus musculus; assay: Antidepressant activity in Swiss albino mouse assessed as decrease in immobility time by forced swimming test; format: functional; further: test concentration or dose not given here
Mus musculus [4] = species: Mus musculus; assay: Antidepressant activity in Swiss albino mouse assessed as decrease in immobility time by tail suspension test; format: functional; further: test concentration or dose not given here
Homo sapiens = species: Homo sapiens; assay: Selectivity index, ratio of Ki for human MAO-A to Ki for human MAO-B
[5] = target: T1, Amine oxidase [flavin-containing] A (Homo sapiens, UniProt P21397)
T1 sequence (P21397 whole entry): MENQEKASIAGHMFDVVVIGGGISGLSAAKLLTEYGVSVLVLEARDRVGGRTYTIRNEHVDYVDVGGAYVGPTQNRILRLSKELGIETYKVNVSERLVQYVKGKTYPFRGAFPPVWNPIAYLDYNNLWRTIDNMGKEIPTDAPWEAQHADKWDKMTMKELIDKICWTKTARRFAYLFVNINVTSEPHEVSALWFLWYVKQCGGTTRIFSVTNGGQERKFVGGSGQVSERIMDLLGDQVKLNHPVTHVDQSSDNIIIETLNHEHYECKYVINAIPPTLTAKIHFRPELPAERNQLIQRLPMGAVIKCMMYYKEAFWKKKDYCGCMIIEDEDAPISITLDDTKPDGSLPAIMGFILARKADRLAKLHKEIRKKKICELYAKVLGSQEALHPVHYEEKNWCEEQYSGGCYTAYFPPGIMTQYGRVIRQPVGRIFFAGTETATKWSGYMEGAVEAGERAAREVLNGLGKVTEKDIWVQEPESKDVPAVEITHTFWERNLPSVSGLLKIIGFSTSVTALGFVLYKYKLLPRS

[6] = target: T2, Amine oxidase [flavin-containing] B (Homo sapiens, UniProt P27338)
T2 sequence (P27338 whole entry): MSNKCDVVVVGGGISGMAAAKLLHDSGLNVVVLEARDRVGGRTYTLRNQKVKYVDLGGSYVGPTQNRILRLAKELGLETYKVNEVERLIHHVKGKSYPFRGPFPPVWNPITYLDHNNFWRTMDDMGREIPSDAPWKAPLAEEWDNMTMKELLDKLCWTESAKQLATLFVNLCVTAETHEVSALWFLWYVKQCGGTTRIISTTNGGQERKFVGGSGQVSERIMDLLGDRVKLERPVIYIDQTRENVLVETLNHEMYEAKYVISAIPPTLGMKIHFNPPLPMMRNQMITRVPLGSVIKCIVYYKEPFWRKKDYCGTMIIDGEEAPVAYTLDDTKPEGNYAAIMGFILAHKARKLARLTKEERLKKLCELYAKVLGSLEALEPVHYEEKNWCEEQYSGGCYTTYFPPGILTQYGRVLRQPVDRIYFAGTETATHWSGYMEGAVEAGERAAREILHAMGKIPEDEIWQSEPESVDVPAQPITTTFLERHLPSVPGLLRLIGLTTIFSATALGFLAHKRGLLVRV

Carbonic anhydrase 1 [7] = target: T3, Carbonic anhydrase 1 (Homo sapiens, UniProt P00915); assay: Inhibition of human recombinant CA1
T3 sequence (P00915 whole entry): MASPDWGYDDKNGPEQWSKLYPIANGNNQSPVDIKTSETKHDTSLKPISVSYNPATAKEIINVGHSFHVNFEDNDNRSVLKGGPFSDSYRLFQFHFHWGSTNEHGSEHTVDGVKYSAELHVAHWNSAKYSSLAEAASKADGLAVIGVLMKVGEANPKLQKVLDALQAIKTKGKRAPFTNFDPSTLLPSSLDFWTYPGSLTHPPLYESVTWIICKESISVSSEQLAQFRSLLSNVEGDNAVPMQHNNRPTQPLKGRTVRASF

Carbonic anhydrase 2 [8] = target: T4, Carbonic anhydrase 2 (Homo sapiens, UniProt P00918); assay: Inhibition of human recombinant CA2
Carbonic anhydrase 4 = Carbonic anhydrase 4 (Homo sapiens, UniProt P22748); assay: Inhibition of human recombinant CA4
Carbonic anhydrase 4, sequence (P22748 whole entry): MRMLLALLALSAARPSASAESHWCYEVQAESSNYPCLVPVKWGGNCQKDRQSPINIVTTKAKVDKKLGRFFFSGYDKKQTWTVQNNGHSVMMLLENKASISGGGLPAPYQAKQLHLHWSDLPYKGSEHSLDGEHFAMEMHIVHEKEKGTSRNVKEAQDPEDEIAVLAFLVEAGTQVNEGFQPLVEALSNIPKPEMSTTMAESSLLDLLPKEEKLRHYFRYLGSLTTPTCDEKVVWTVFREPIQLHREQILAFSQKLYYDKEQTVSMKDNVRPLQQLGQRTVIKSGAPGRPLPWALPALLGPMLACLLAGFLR

Carbonic anhydrase 9 [9] = target: T5, Carbonic anhydrase 9 (Homo sapiens, UniProt Q16790)
Ca9-22 = assay: Cytotoxicity against human Ca9-22 cells assessed as reduction in cell viability incubated for 48 hrs by MTT assay; format: functional
HSC-2 = assay: Cytotoxicity against human HSC-2 cells assessed as reduction in cell viability incubated for 48 hrs by MTT assay; format: functional
HSC-3 = assay: Cytotoxicity against human HSC-3 cells assessed as reduction in cell viability incubated for 48 hrs by MTT assay; format: functional
[10] = Cytotoxicity against human HGF cells assessed as reduction in cell viability incubated for 48 hrs by MTT assay; format: functional
[11] = Cytotoxicity against human HPLF cells assessed as reduction in cell viability incubated for 48 hrs by MTT assay; format: functional
[12] = Cytotoxicity against human HPC cells assessed as reduction in cell viability incubated for 48 hrs by MTT assay; format: functional
Carbonic anhydrase 9 [13] = target: T5, Carbonic anhydrase 9; assay: Inhibition of human CA9 preincubated for 15 mins by phenol red dye based stopped flow CO2 hydration assay
Carbonic anhydrase 12 = Carbonic anhydrase 12 (Homo sapiens, UniProt O43570); assay: Inhibition of human CA12 preincubated for 15 mins by phenol red dye based stopped flow CO2 hydration assay
Carbonic anhydrase 12, sequence (O43570 whole entry): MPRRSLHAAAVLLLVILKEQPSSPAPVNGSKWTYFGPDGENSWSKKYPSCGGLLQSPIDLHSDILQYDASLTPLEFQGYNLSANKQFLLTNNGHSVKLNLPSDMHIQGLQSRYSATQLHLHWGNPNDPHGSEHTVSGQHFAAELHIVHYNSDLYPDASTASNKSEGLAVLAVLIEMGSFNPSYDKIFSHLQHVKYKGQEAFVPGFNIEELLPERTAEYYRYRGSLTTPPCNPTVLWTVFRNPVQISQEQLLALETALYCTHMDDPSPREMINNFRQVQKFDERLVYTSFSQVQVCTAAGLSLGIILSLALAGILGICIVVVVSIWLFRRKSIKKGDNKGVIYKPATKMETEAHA

Carbonic anhydrase 1 [14] = target: T3, Carbonic anhydrase 1
Carbonic anhydrase 2 [15] = target: T4, Carbonic anhydrase 2

SMILES: COc1ccc(C2CC(c3ccccn3)=NN2)cc1OC (stereo not given)
- Time (Mus musculus [1]): 21.17 s
- Time (Mus musculus [2]): 21.17 s

SMILES: c1csc(C2CC(c3cccc4ccccc34)=NN2)c1 (stereo not given)
- Time (Mus musculus [1]): 21.17 s
- Time (Mus musculus [2]): 21.17 s

SMILES: Clc1ccc(C2CC(c3cccc4ccccc34)=NN2)cc1 (stereo not given)
- Time (Mus musculus [1]): 29.67 s
- Time (Mus musculus [2]): 43.33 s

SMILES: Cc1nc(-c2ccc(F)cc2)ccc1C1=NNC(c2ccc(Br)cc2)C1 (stereo not given)
- Time (Mus musculus [3]): 66.67 s
- Time (Mus musculus [4]): 70.33 s

- Ratio Ki (Homo sapiens): 0.000464
- Ki [5]: 0.1 nM
- Ki [6]: 200 nM
SMILES: C=CCNC(=S)N1N=C(c2ccc(Cl)cc2)CC1c1ccc(F)cc1 (stereo not given)

- Ratio Ki (Homo sapiens): 0.000464
- Ki [5]: 0.1 nM
- Ki [6]: 200 nM
SMILES: C=CCNC(=S)N1N=C(c2ccccc2)CC1c1ccc(F)cc1 (stereo not given)

SMILES: COc1ccc(-c2ccc(C3=NNC(c4ccc(Br)cc4)C3)c(C)n2)cc1OC (stereo not given)
- Time (Mus musculus [3]): 66.67 s
- Time (Mus musculus [4]): 70.33 s

- Ratio Ki (Homo sapiens): 0.000464
- Ki [5]: 0.1 nM
- Ki [6]: 200 nM
SMILES: CCNC(=S)N1N=C(c2ccc(Cl)cc2)CC1c1ccc(F)cc1 (stereo not given)

SMILES: COc1ccc(C2CC(c3cccc4ccccc34)=NN2)cc1OC (stereo not given)
- Time (Mus musculus [1]): 36.83 s
- Time (Mus musculus [2]): 21.17 s

- Ratio Ki (Homo sapiens): 0.000464
- Ki [5]: 0.1 nM
- Ki [6]: 200 nM
SMILES: CCNC(=S)N1N=C(c2ccc(C)cc2)CC1c1ccc(F)cc1 (stereo not given)

- Ratio Ki (Homo sapiens): 0.000464
- Ki [5]: 0.1 nM
- Ki [6]: 200 nM
SMILES: C=CCNC(=S)N1N=C(c2ccc(C)cc2)CC1c1ccc(F)cc1 (stereo not given)

SMILES: Clc1ccc(C2=NNC(c3cccs3)C2)cc1 (stereo not given)
- Time (Mus musculus [1]): 21.17 s
- Time (Mus musculus [2]): 21.17 s

- Ki (Carbonic anhydrase 1 [7]): 2460 nM
- Ki (Carbonic anhydrase 2 [8]): 0.4 nM
- Ki (Carbonic anhydrase 4): 17.7 nM
- Ki (Carbonic anhydrase 9 [9]): 14.8 nM
SMILES: CC(=O)N1N=C(c2ccc(OS(N)(=O)=O)cc2)CC1c1ccc(C(F)(F)F)cc1 (stereo not given)

- Ki (Carbonic anhydrase 1 [7]): 2460 nM
- Ki (Carbonic anhydrase 2 [8]): 0.4 nM
- Ki (Carbonic anhydrase 4): 17.7 nM
- Ki (Carbonic anhydrase 9 [9]): 14.8 nM
SMILES: CC(=O)N1N=C(c2ccc(OS(N)(=O)=O)cc2)CC1c1ccccc1Cl (stereo not given)

- Ki (Carbonic anhydrase 9 [13]): 53.5 nM
- Ki (Carbonic anhydrase 12): 6.2 nM
SMILES: NS(=O)(=O)c1ccc(N2N=C(c3ccc(O)cc3)CC2c2ccc(Cl)cc2Cl)cc1 (stereo not given)
- CC50 (Ca9-22): 39300 nM
- CC50 (HSC-2): 39300 nM
- CC50 (HSC-3): 39300 nM
- CC50 [10]: 39300 nM
- CC50 [11]: 39300 nM
- CC50 [12]: 39300 nM

SMILES: Oc1ccc(C2=NNC(c3cccs3)C2)cc1 (stereo not given)
- Time (Mus musculus [1]): 21.17 s
- Time (Mus musculus [2]): 21.17 s

SMILES: Clc1ccc(C2CC(c3ccccn3)=NN2)cc1 (stereo not given)
- Time (Mus musculus [1]): 21.17 s
- Time (Mus musculus [2]): 21.17 s

- Ratio Ki (Homo sapiens): 0.000464
- Ki [5]: 0.1 nM
- Ki [6]: 200 nM
SMILES: CNC(=S)N1N=C(c2ccc(C)cc2)CC1c1ccc(F)cc1 (stereo not given)

- Ki (Carbonic anhydrase 9 [13]): 53.5 nM
- Ki (Carbonic anhydrase 12): 6.2 nM
SMILES: NS(=O)(=O)c1ccc(N2N=C(c3ccc(O)cc3)CC2c2ccc([N+](=O)[O-])cc2)cc1 (stereo not given)
- CC50 (HSC-2): 39300 nM
- CC50 (HSC-3): 39300 nM
- CC50 [10]: 39300 nM
- CC50 [11]: 39300 nM
- CC50 [12]: 39300 nM

- Ratio Ki (Homo sapiens): 0.000464
- Ki [5]: 0.1 nM
- Ki [6]: 200 nM
SMILES: CCNC(=S)N1N=C(c2ccccc2)CC1c1ccc(F)cc1 (stereo not given)

- Ki (Carbonic anhydrase 1 [14]): 232 nM
- Ki (Carbonic anhydrase 12): 6.2 nM
- Ki (Carbonic anhydrase 2 [15]): 342 nM
SMILES: NS(=O)(=O)c1ccc(N2N=C(c3ccc(O)cc3)CC2c2cccs2)cc1 (stereo not given)
- CC50 (Ca9-22): 39300 nM
- CC50 (HSC-2): 39300 nM
- CC50 (HSC-3): 39300 nM
- CC50 [10]: 39300 nM
- CC50 [11]: 39300 nM
- CC50 [12]: 39300 nM

SMILES: COc1cc(-c2ccc(C3=NNC(c4ccc(Br)cc4)C3)c(C)n2)cc(OC)c1OC (stereo not given)
- Time (Mus musculus [3]): 66.67 s
- Time (Mus musculus [4]): 70.33 s

- Ki (Carbonic anhydrase 9 [13]): 53.5 nM
- Ki (Carbonic anhydrase 12): 6.2 nM
SMILES: COc1ccc(C2CC(c3ccc(O)cc3)=NN2c2ccc(S(N)(=O)=O)cc2)cc1 (stereo not given)
- CC50 (Ca9-22): 39300 nM
- CC50 (HSC-2): 39300 nM
- CC50 (HSC-3): 39300 nM
- CC50 [10]: 39300 nM
- CC50 [11]: 39300 nM
- CC50 [12]: 39300 nM

- Ki (Carbonic anhydrase 1 [7]): 2460 nM
- Ki (Carbonic anhydrase 2 [8]): 0.4 nM
- Ki (Carbonic anhydrase 4): 17.7 nM
- Ki (Carbonic anhydrase 9 [9]): 14.8 nM
SMILES: CC(=O)N1N=C(c2ccc(OS(N)(=O)=O)cc2)CC1c1ccc([N+](=O)[O-])cc1 (stereo not given)

From ChEMBL document CHEMBL5260848, “Recent advancements in the development of bioactive pyrazoline derivatives” (Eur J Med Chem, 2020)
